According to patent publication US20240158446A1, “CYCLIC COMPOUND HAVING SELECTIVE INHIBITORY ACTION ON KRAS OVER HRAS AND NRAS” (CHUGAI SEIYAKU KABUSHIKI KAISHA, priority 2021, published 2024):

Tests used:
[1] = biological target: GDP-bound HRAS wild-type protein (Homo sapiens, UniProt P01112); assay: Binding to HRAS by surface plasmon resonance (SPR), Single Cycle Kinetics; conditions: for HRAS/KRAS (ratio of KD value with respect to GDP-bound HRAS wild-type protein to KD value with respect to KRAS): SPR KD ratio HRAS/KRAS, class symbols; for HRAS/KRAS (ratio of KD value for HRAS to KD value for KRAS): SPR, GDP-bound HRAS wild-type protein vs GDP-bound KRAS wild-type protein
[2] = biological target: GDP-bound NRAS wild-type protein (Homo sapiens, UniProt P01111); assay: Binding to NRAS by surface plasmon resonance (SPR), Single Cycle Kinetics; conditions: for NRAS/KRAS (ratio of KD value with respect to GDP-bound NRAS wild-type protein to KD value with respect to KRAS): SPR KD ratio NRAS/KRAS, class symbols; for NRAS/KRAS (ratio of KD value for NRAS to KD value for KRAS): SPR, GDP-bound NRAS wild-type protein vs GDP-bound KRAS wild-type protein
Chain of GDP-bound NRAS wild-type protein (P01111 whole entry): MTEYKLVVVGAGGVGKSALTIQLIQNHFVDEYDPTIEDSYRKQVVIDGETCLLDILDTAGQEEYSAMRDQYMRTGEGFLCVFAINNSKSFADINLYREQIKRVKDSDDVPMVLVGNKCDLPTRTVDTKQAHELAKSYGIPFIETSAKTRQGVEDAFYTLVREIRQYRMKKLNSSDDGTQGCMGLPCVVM

Chain of GDP-bound HRAS wild-type protein (P01112 whole entry): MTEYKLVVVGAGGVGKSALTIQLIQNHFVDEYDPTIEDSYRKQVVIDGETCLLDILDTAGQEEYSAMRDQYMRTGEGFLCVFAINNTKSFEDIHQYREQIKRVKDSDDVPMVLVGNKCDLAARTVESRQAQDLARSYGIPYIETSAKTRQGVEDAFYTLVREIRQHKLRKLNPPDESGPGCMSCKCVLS

CCC[C@H]1C(=O)N[C@@H]([C@@H](C)CC)C(=O)N(C2CC2)CC(=O)N(C)[C@H]2C/C=C\CCN(C2=O)[C@@H](Cc2ccc(C)cc2)C(=O)N(C)CC(=O)N[C@@H](CCc2cc(F)c3c(c2)OCC3)C(=O)N2C[C@H](OCC)C[C@H]2C(=O)NC2(CC(C)(C)C2)C(=O)N(C)[C@@H](C2CCCC2)C(=O)N(C)[C@H](C(=O)N(C)C)CC(=O)N1C [PP2880]
HRAS/KRAS (ratio of KD value with respect to GDP-bound HRAS wild-type protein to KD value with respect to KRAS) [1]: A (a compound having 10 or more and less than 20 is denoted as A) | NRAS/KRAS (ratio of KD value with respect to GDP-bound NRAS wild-type protein to KD value with respect to KRAS) [2]: A (a compound having 10 or more and less than 20 is denoted as A)

CCC[C@H]1C(=O)N[C@@H]([C@@H](C)CC)C(=O)N(C2CC2)CC(=O)N(C)[C@H]2C/C=C\CCN(C2=O)[C@@H](CC2CCCCC2)C(=O)N(C)CC(=O)N[C@@H](CCc2ccc(C(F)(F)F)c(OC)c2)C(=O)N2C[C@H](OCC)C[C@H]2C(=O)N(C)C2(CCC2)C(=O)N(C)[C@@H](C2CCCC2)C(=O)N(C)[C@H](C(=O)N(C)C)CC(=O)N1C [PP2340]
HRAS/KRAS (ratio of KD value for HRAS to KD value for KRAS) [1]: B (a compound having 3 or more and less than 10 is denoted as B) | NRAS/KRAS (ratio of KD value for NRAS to KD value for KRAS) [2]: B (a compound having 3 or more and less than 10 is denoted as B)

CC[C@H](C)[C@@H]1NC(=O)[C@H](CC(C)C)N(C)C(=O)C[C@@H](C(=O)N(C)C)N(C)C(=O)[C@H](C2CCCC2)N(C)C(=O)C2(CC(C)(C)C2)NC(=O)[C@@H]2C[C@@H](C)CN2C(=O)[C@H](CCc2cc(F)c(C(F)(F)F)c(F)c2)NC(=O)CN(C)C(=O)[C@H](Cc2ccc(C)cc2)N2CC/C=C\C[C@@H](C2=O)N(C)C(=O)CN(C)C1=O [PP2223]
HRAS/KRAS (ratio of KD value for HRAS to KD value for KRAS) [1]: A (a compound having 10 or more and less than 20 is denoted as A) | NRAS/KRAS (ratio of KD value for NRAS to KD value for KRAS) [2]: A (a compound having 10 or more and less than 20 is denoted as A)

CCC(CC)[C@H]1C(=O)N(C)[C@H](C(=O)N(C)C)CC(=O)N(C)[C@@H](COC)C(=O)N[C@@H]([C@@H](C)CC)C(=O)N(C)CC(=O)N(C)[C@H]2C/C=C\CCN(C2=O)[C@@H](Cc2ccc(C)cc2)C(=O)N(C)CC(=O)N[C@@H](CCc2cc(F)c(C(F)(F)F)c(F)c2)C(=O)N2CCCCC[C@H]2C(=O)NC2(CC(C)(C)C2)C(=O)N1C [PP2960]
HRAS/KRAS (ratio of KD value with respect to GDP-bound HRAS wild-type protein to KD value with respect to KRAS) [1]: A (a compound having 10 or more and less than 20 is denoted as A) | NRAS/KRAS (ratio of KD value with respect to GDP-bound NRAS wild-type protein to KD value with respect to KRAS) [2]: A (a compound having 10 or more and less than 20 is denoted as A)

CCO[C@@H]1C[C@H]2C(=O)N(C)C3(CC(C)(C)C3)C(=O)N(C)[C@@H](C(CC)CC)C(=O)N(C)[C@H](C(=O)N(C)C)CC(=O)N(C)[C@@H](COC)C(=O)N[C@@H]([C@@H](C)CC)C(=O)N(C)CC(=O)N(C)[C@H]3C/C=C\CCN(C3=O)[C@@H](Cc3ccc(C)cc3)C(=O)N(C)CC(=O)N[C@@H](CCc3ccc(Cl)c(Cl)c3)C(=O)N2C1 [PP2810]
HRAS/KRAS (ratio of KD value with respect to GDP-bound HRAS wild-type protein to KD value with respect to KRAS) [1]: A (a compound having 10 or more and less than 20 is denoted as A) | NRAS/KRAS (ratio of KD value with respect to GDP-bound NRAS wild-type protein to KD value with respect to KRAS) [2]: AA (a compound having 20 or more is denoted as AA)

CCC(CC)[C@H]1C(=O)N(C)[C@H](C(=O)N(C)C)CC(=O)N(C)[C@@H](COC)C(=O)N[C@@H]([C@@H](C)CC)C(=O)N(C)CC(=O)N(C)[C@H]2C/C=C\CCN(C2=O)[C@@H](Cc2ccc(C)cc2)C(=O)N(C)CC(=O)N[C@@H](CCc2ccc(C(F)(F)F)c(Cl)c2)C(=O)N2CCCCC[C@H]2C(=O)NC2(CC(C)(C)C2)C(=O)N1C [PP2966]
HRAS/KRAS (ratio of KD value with respect to GDP-bound HRAS wild-type protein to KD value with respect to KRAS) [1]: A (a compound having 10 or more and less than 20 is denoted as A) | NRAS/KRAS (ratio of KD value with respect to GDP-bound NRAS wild-type protein to KD value with respect to KRAS) [2]: A (a compound having 10 or more and less than 20 is denoted as A)

CCC[C@H]1C(=O)N[C@@H]([C@@H](C)CC)C(=O)N(C2CC2)CC(=O)N(C)[C@H]2C/C=C\CCN(C2=O)[C@@H](Cc2ccc(C)cc2)C(=O)N(C)CC(=O)N[C@@H](CCc2cc(Cl)c(C(F)F)c(Cl)c2)C(=O)N2C[C@H](OCC)C[C@H]2C(=O)NC2(CC(C)(C)C2)C(=O)N(C)[C@@H](C2CCCC2)C(=O)N(C)[C@H](C(=O)N(C)C)CC(=O)N1C [PP2877]
HRAS/KRAS (ratio of KD value with respect to GDP-bound HRAS wild-type protein to KD value with respect to KRAS) [1]: A (a compound having 10 or more and less than 20 is denoted as A) | NRAS/KRAS (ratio of KD value with respect to GDP-bound NRAS wild-type protein to KD value with respect to KRAS) [2]: A (a compound having 10 or more and less than 20 is denoted as A)

CCC[C@H]1C(=O)N[C@@H]([C@@H](C)CC)C(=O)N(C)CC(=O)N(C)[C@H]2C/C=C\CCN(C2=O)[C@@H](Cc2ccc(C(F)(F)F)cc2)C(=O)N(C)CC(=O)N[C@@H](CCc2cc(Cl)c(C(F)F)c(Cl)c2)C(=O)N2C[C@H](OCC)C[C@H]2C(=O)NC2(CC(C)(C)C2)C(=O)N(C)[C@@H](C2CCCC2)C(=O)N(C)[C@H](C(=O)N(C)C)CC(=O)N1C [PP2865]
HRAS/KRAS (ratio of KD value with respect to GDP-bound HRAS wild-type protein to KD value with respect to KRAS) [1]: A (a compound having 10 or more and less than 20 is denoted as A) | NRAS/KRAS (ratio of KD value with respect to GDP-bound NRAS wild-type protein to KD value with respect to KRAS) [2]: A (a compound having 10 or more and less than 20 is denoted as A)
